Data published in ChEMBL document CHEMBL2086385, “Synthesis and antimicrobial evaluation of L-phenylalanine-derived C5-substituted rhodanine and chalcone derivatives containing thiobarbituric acid or 2-thioxo-4-thiazolidinone” (2012).

Experiments:
Type in all cases: functional
Staphylococcus aureus [1] = test: Antibacterial activity against Staphylococcus aureus RN4220 after 24 hrs by broth microdilution method; conditions: RN4220, 24 h
Staphylococcus aureus [2] = test: Antibacterial activity against methicillin-resistant Staphylococcus aureus CCARM 3167 clinical isolate after 24 hrs by broth microdilution method; conditions: CCARM 3167, 24 h
Staphylococcus aureus [3] = test: Antibacterial activity against quinolone-resistant Staphylococcus aureus CCARM 3519 clinical isolate after 24 hrs by broth microdilution method; conditions: CCARM 3519, 24 h
Staphylococcus aureus [4] = test: Antibacterial activity against Staphylococcus aureus KCTC 209 after 24 hrs by broth microdilution method; conditions: KCTC 209, 24 h
Staphylococcus aureus [5] = test: Antibacterial activity against methicillin-resistant Staphylococcus aureus CCARM 3506 clinical isolate after 24 hrs by broth microdilution method; conditions: CCARM 3506, 24 h
Escherichia coli = test: Antibacterial activity against Escherichia coli CCARM 1356 after 24 hrs by broth microdilution method; conditions: CCARM 1356, 24 h
Staphylococcus aureus [6] = test: Antibacterial activity against quinolone-resistant Staphylococcus aureus CCARM 3505 clinical isolate after 24 hrs by broth microdilution method; conditions: CCARM 3505, 24 h
Staphylococcus aureus [7] = test: Antibacterial activity against Staphylococcus aureus KCTC 503 after 24 hrs by broth microdilution method; conditions: KCTC 503, 24 h

Measured: MIC

O=C1NC(=S)NC(=O)C1=Cc1ccc(/C=C/C(=O)c2ccc(Cl)cc2)cc1
> 64 µg/mL: all assays above

Cc1ccc(COc2ccc(C=O)cc2)cc1
> 64 µg/mL: all assays above

O=Cc1ccc(/C=C/C(=O)c2ccc3ccccc3c2)cc1
> 64 µg/mL: all assays above

O=C1NC(=S)S/C1=C/c1ccc(/C=C/C(=O)c2cccc(Cl)c2)cc1
> 64 µg/mL: all assays above

O=Cc1ccc(OCc2cccc(Cl)c2)cc1
> 64 µg/mL: all assays above

O=Cc1ccc(/C=C/C(=O)c2cccc(Cl)c2)cc1
> 64 µg/mL: all assays above

O=Cc1ccc(OCc2cccc(Br)c2)cc1
> 64 µg/mL: all assays above

COc1ccccc1C(=O)/C=C/c1ccc(C=O)cc1
> 64 µg/mL: all assays above

O=C1NC(=S)NC(=O)C1=Cc1ccc(/C=C/C(=O)c2ccc(F)cc2)cc1
> 64 µg/mL: all assays above

O=C1NC(=S)NC(=O)C1=Cc1ccc(/C=C/C(=O)c2ccccc2F)cc1
> 64 µg/mL: all assays above

O=C1NC(=S)S/C1=C/c1ccc(/C=C/C(=O)c2ccccc2Cl)cc1
> 64 µg/mL: all assays above
